Reference: article doi:10.1101/2023.11.24.568596v1 (biorxiv, 2023)

How the values were obtained:
Details in all cases: binder
[1] = molecular target: PAK1 (Homo sapiens, UniProt Q13153)
[2] = molecular target: T1, MST2 (Homo sapiens, UniProt Q13188)
T1 sequence (Q13188 1-491): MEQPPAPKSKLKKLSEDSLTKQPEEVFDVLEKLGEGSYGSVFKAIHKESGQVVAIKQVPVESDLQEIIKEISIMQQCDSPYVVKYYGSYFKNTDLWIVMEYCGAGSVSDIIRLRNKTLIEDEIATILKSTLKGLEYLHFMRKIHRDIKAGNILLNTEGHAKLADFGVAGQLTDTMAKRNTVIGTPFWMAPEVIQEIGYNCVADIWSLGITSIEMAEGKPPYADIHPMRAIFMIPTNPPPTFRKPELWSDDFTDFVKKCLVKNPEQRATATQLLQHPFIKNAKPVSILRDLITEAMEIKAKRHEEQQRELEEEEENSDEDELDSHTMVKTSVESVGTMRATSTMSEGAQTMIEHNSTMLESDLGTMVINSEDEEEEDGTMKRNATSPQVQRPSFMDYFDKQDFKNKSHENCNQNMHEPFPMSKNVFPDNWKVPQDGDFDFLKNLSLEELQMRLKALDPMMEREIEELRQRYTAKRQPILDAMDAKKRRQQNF

[3] = molecular target: MSSK1 (Homo sapiens, UniProt Q9UPE1)
[4] = molecular target: CK1e (Homo sapiens, UniProt P49674)
[5] = molecular target: T2, BRPF1 (Homo sapiens, UniProt P55201)
T2 sequence (P55201 1-1214): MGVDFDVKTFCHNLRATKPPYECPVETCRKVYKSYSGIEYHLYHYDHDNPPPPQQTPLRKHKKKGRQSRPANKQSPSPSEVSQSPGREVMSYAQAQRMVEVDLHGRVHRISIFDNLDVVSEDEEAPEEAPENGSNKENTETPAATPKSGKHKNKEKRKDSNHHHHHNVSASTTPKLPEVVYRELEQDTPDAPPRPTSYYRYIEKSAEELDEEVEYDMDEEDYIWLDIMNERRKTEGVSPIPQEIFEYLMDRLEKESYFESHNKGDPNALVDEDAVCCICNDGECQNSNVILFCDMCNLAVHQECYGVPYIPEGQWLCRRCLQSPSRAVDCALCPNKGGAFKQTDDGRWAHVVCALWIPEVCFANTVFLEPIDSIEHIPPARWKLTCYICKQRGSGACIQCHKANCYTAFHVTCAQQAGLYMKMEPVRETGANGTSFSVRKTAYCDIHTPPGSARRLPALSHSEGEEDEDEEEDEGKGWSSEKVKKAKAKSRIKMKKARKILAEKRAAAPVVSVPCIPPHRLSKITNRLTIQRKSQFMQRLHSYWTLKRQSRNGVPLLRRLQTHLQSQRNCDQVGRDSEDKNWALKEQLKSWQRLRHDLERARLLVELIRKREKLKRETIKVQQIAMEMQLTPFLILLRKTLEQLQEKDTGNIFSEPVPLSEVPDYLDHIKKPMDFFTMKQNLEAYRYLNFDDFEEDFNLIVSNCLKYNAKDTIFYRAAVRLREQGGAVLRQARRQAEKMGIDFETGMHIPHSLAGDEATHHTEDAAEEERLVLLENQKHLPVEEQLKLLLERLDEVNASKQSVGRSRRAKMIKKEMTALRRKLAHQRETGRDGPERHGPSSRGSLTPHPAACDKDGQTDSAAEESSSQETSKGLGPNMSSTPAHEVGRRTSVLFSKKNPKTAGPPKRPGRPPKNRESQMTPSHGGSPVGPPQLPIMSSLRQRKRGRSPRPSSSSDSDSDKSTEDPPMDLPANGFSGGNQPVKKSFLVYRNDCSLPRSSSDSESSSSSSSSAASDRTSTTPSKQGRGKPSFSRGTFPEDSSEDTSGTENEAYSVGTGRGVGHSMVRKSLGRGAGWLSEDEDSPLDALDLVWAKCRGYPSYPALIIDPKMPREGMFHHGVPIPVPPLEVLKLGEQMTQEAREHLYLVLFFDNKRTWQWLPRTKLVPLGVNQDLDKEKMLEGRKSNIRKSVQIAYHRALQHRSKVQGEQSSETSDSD

[6] = molecular target: T3, FECH (Homo sapiens, UniProt P22830)
T3 sequence (P22830 1-423): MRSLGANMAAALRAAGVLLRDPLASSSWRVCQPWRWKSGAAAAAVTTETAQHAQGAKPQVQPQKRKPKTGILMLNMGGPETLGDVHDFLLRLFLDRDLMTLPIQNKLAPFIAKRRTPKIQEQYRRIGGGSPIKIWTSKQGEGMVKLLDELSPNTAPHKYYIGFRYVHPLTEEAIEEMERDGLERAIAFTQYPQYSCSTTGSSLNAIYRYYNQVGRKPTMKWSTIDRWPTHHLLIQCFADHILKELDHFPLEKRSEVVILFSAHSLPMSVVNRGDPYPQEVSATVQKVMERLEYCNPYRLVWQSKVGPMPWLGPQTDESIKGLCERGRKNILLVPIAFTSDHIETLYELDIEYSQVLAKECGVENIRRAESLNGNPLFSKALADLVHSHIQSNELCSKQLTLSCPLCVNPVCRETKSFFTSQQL

[7] = molecular target: HIPK2 (Homo sapiens, UniProt Q9H2X6)
[8] = molecular target: T4, NQO2A (Homo sapiens, UniProt P16083)
T4 sequence (P16083 1-231): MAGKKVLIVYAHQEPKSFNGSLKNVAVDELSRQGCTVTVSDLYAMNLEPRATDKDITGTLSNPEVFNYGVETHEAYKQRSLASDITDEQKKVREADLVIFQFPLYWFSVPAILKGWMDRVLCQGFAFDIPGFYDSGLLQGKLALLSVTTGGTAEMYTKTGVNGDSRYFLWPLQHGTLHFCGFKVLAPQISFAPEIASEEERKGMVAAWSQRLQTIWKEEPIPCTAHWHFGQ

HIPK2, sequence (Q9H2X6 whole entry): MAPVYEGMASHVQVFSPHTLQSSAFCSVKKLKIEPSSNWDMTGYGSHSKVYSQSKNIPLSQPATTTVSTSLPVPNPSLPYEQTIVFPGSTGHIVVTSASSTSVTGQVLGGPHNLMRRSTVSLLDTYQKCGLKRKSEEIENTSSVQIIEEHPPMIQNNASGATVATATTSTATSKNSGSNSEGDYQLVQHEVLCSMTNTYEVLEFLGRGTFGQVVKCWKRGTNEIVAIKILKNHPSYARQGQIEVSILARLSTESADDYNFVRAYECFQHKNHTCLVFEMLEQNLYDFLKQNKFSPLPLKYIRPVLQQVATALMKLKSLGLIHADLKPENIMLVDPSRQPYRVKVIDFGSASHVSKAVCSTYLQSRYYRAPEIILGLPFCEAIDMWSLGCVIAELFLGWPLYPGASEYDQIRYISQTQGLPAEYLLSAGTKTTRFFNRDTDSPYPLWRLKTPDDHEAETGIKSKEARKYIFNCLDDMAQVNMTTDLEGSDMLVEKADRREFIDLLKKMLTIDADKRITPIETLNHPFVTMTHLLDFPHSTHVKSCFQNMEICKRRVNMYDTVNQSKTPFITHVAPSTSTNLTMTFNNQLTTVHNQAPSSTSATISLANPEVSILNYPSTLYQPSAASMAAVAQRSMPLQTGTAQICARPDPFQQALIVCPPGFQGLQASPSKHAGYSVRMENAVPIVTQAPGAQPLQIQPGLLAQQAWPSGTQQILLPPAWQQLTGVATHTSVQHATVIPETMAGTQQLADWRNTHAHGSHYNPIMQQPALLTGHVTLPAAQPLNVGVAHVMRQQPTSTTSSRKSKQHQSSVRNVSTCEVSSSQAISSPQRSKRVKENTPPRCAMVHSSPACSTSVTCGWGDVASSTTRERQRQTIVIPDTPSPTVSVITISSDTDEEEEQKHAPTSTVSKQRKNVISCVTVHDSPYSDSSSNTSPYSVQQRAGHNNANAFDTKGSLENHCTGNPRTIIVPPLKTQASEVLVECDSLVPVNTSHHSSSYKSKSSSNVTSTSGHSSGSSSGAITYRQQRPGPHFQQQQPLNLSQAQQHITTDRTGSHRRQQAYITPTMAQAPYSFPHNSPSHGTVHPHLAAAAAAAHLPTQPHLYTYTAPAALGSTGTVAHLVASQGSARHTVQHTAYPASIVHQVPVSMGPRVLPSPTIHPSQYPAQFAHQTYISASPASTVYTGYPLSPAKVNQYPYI
MSSK1, sequence (Q9UPE1 whole entry): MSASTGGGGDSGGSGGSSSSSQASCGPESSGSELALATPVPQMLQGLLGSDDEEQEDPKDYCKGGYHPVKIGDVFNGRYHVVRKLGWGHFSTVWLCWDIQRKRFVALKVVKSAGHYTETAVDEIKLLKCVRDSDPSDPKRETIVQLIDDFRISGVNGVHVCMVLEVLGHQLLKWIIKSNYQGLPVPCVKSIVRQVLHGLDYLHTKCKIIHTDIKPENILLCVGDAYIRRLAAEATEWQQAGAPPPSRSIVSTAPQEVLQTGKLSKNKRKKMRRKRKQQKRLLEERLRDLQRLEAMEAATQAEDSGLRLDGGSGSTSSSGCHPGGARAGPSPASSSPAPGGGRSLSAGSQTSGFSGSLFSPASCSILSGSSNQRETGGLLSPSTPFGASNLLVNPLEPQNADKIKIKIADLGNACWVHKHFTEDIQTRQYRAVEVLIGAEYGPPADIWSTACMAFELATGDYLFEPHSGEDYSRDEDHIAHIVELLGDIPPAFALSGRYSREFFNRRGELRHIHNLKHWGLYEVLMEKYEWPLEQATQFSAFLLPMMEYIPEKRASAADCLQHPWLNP
PAK1, sequence (Q13153 whole entry): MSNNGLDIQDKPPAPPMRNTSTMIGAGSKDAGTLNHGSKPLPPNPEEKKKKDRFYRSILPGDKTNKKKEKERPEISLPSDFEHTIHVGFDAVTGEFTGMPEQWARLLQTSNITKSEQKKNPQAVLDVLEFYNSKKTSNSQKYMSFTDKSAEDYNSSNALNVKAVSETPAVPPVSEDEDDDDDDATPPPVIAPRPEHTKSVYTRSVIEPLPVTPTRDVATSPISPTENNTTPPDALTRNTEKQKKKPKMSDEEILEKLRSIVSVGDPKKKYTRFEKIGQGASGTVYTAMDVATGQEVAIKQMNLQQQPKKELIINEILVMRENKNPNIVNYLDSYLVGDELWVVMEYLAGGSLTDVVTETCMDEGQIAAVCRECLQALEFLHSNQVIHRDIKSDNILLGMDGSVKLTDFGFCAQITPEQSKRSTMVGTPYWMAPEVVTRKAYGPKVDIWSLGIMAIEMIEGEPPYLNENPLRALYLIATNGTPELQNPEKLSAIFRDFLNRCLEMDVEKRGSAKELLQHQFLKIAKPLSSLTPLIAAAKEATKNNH
CK1e, sequence (P49674 whole entry): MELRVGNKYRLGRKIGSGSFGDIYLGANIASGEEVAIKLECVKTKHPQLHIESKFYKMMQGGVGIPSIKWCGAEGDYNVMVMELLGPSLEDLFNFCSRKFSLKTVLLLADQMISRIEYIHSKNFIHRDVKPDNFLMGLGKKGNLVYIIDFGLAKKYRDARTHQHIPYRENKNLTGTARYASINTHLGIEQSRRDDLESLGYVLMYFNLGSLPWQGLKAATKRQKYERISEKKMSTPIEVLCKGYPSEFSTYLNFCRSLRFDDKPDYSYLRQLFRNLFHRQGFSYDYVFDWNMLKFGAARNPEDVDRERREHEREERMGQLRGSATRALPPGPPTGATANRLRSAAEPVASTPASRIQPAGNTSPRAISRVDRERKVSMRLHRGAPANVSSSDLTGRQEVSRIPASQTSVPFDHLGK

CNc1ncc2cc(-c3ccc(-c4cccc(C)n4)cc3Cl)c(=O)n(CCCCN)c2n1 [compound 20, MRLW5]
dTm PAK1 [1]: 6.5 °C
dTm MST2 [2]: 7.9 °C

CNc1ncc2cc(-c3ccc(-c4cccc(C)n4)cc3Cl)c(=O)n(CCC3CCNCC3)c2n1 [compound 22, 6-(2-Chloro-4-(6-methylpyridin-2-yl)phenyl)-2-(methylamino)-8-(2-(piperidin-4-yl)ethyl)pyrido[2,3-d]pyrimidin-7(8H)-one]
dTm PAK1 [1]: 8.6 °C
dTm MST2 [2]: 8.0 °C
ΔTm 22 [3]: -0.1 °C
ΔTm 22 [4]: 6.8 °C
ΔTm 22 [5]: -0.4 °C
ΔTm 22 [6]: -0.3 °C
ΔTm 22 [7]: 2.3 °C
ΔTm 22 [8]: -0.1 °C

CNc1ncc2cc(-c3ccc(-c4cccc(C)n4)cc3Cl)c(=O)n(C[C@H]3CC[C@H](N)CC3)c2n1 [compound 23, 23]
dTm PAK1 [1]: 8.4 °C
dTm MST2 [2]: 10.8 °C
ΔTm 23 [5]: -1.8 °C
ΔTm 23 [7]: 2.1 °C

Cc1cccc(-c2ccc(-c3cc4cnc(NC(CO)CO)nc4n(CCCCN)c3=O)c(Cl)c2)n1 [compound 24, 8-(4-Aminobutyl)-6-(2-chloro-4-(6-methylpyridin-2-yl)phenyl)-2-((1,3-dihydroxypropan-2-yl)amino)pyrido[2,3-d]pyrimidin-7(8H)-one]
ΔTm MR24 (24) [3]: -0.2 °C
ΔTm MR24 (24) [4]: 6.4 °C
ΔTm MR24 (24) [5]: -1.5 °C
ΔTm MR24 (24) [6]: -0.5 °C
ΔTm MR24 (24) [7]: 0.4 °C
ΔTm MR24 (24) [8]: 0.3 °C

Cc1cccc(-c2ccc(-c3cc4cnc(NCCCc5ccc(N)cc5)nc4n(CCCCN)c3=O)c(Cl)c2)n1 [compound 25, 8-(4-Aminobutyl)-2-((3-(4-aminophenyl)propyl)amino)-6-(2-chloro-4-(6-methylpyridin-2-yl)phenyl)pyrido[2,3-d]pyrimidin-7(8H)-one]
ΔTm 25 [3]: -0.4 °C
ΔTm 25 [4]: 8.0 °C
ΔTm 25 [5]: -1.4 °C
ΔTm 25 [6]: 3.0 °C
ΔTm 25 [7]: 0.8 °C
ΔTm 25 [8]: 0.5 °C

Cc1cccc(-c2ccc(-c3cc4cnc(NCCCN5CCOCC5)nc4n(CCCCN)c3=O)c(Cl)c2)n1 [compound 26, MR26]
ΔTm MR26 (26) [3]: -0.3 °C
ΔTm MR26 (26) [4]: 7.3 °C
ΔTm MR26 (26) [5]: -1.0 °C
ΔTm MR26 (26) [6]: 0.3 °C
ΔTm MR26 (26) [7]: 0.4 °C
ΔTm MR26 (26) [8]: 0.1 °C
